Results on three compounds are retold here after the NIST ThermoML archive (doi:10.1021/je900520a).

For the data set the following is noted: Crystal; visual observation.

Numbers after ± are expanded uncertainties.

On to `C[C@]12C=CC(=O)N[C@@H]1CC[C@@H]1[C@@H]2CC[C@]2(C)[C@@H](C(=O)Nc3cc(C(F)(F)F)ccc3C(F)(F)F)CC[C@@H]12` [dutasteride], for which the Normal melting temperature worked out at 242 ± 1 °C.

For the compound `CC(C)(C)NC(=O)[C@H]1CC[C@H]2[C@@H]3CC[C@H]4NC(=O)C=C[C@]4(C)[C@H]3CC[C@]12C` [finasteride], the Normal melting temperature was found to be 252 ± 1 °C.

For `CC(C)C(=O)Nc1ccc([N+](=O)[O-])c(C(F)(F)F)c1` [flutamide], the Normal melting temperature was found to be 111 ± 1 °C.
